Data published in article PMC4676711 (ACS chemical neuroscience, 2015).

Experiment: plasma stability
Type: in vitro ADME
Settings: mouse, plasma (K2 EDTA)

Structure (SMILES): CC1CC(OC(=O)C(O)c2ccccc2)CC(C)(C)N1C (stereo not shown) [Eucatropine]
- remaining at 0.5 h, 1 μM: 43.2%
